In EP4786483A1, “AURISTATIN DERIVATIVE AND ANTIBODY-DRUG CONJUGATE THEREOF” (priority 2023, dated 2025) one finds IC50 data, which are given here for 15 compounds.

Where two headings read alike, the source gives them in different places. Non-standard residues stand in square brackets, D forms with d. Residues, ends and D or L forms follow the SMILES beside them. *: point of attachment. Dolaproine = CO[C@@H]([C@@H]1CCCN1)[C@@H](C)C(=O)O; Dil = CC[C@H](C)[C@H](NC)[C@@H](CC(=O)O)OC; Phe(3-NH2) = Nc1cccc(C[C@H](N)C(=O)O)c1; NMe2Val = CC(C)[C@@H](C(=O)*)N(C)C

Common to all, as to experiment: Cytotoxicity test for compounds (CellTiter-Glo cell proliferation inhibition)
Holding throughout (type): cell-based
Background: ATP-based viability assays read luminescence as a measure of living cells.

For test [1], the system named is Human gastric cancer cells NCI-N87. Particulars: 3 days of incubation, CellTiter-Glo, read-out: NCI-87/IC50. The procedure:
(§1) Biological Test Example 1: Cytotoxicity Test for Compounds
(§2) • 96-well clear flat-bottom white plate (Corning, #3610) • RPMI1640 culture medium (Gibco, #A10491-01) • Fetal Bovine Serum (Sigma-Aldrich, #F8687-500ML) • CellTiter-Glo® Luminescent Cell Viability Assay (Promega, # G7572/G7571)
(§3) Human gastric cancer cells NCI-N87 (ATCC, Cat. No.: CRL-5822), human breast cancer cells MDA-MB-468 (Cell Bank of the Committee for Type Culture Collection of the Chinese Academy of Sciences, Cat. No.: TCHu136), and human breast cancer cells KPL-4 (Nanjing Cobioer Biosciences Co., Ltd., Cat. No.: CBP60379) were washed with PBS and digested with 0.25% Trypsin-EDTA trypsin for about 3-10 min. The digestion was terminated with a complete cell culture medium. The cells were centrifuged at 1000 rpm for 5 min, and the supernatant was discarded. The cells were resuspended in a complete cell culture medium. The cell number was counted using a cell counter, and the cells were adjusted to the desired density. 90.0 µL of the cell suspension was added to each well at 3000 cells/well. The cell plate was incubated in a cell incubator at 37°C with 5% CO2 overnight.
(§4) In the experiment, a DMSO control group and test sample groups were set. The cell plate was removed from the incubator to observe cell adherence. After the cells adhered, 10.00 µL of the sample (starting from a final concentration of 10 µM, 5-fold dilution, 9 concentrations) was added to each well. After the mixture was gently shaken uniformly, the plate was incubated in the incubator.
(§5) After 3 days of incubation, 100.0 µL/well of CellTiter-Glo™ (Promega, Cat. No.: G7572/G7571) working solution was added. The plate was shaken on a thermostatic shaker to lyse the cells. After 10 min, the plate was read on a microplate reader.
(§6) Data analysis: GraphPad Prism 8.0 software was used to plot a graph with the Log value of the sample concentration as the abscissa and the Inhibition% as the ordinate. The data were analyzed by Nonlinear regression (curve fit) to obtain the IC50 value of each test sample. Table 1. Inhibition activity of compounds of the present disclosure on cell proliferation

Test [2] has as its system human breast cancer cells KPL-4. Particulars: 3 days of incubation, CellTiter-Glo, read-out: KPL-4/IC50. The procedure:
as §1, §2, §3, §4, §5, §6

Test [3] relates to human breast cancer cells MDA-MB-468. Particulars: 3 days of incubation, CellTiter-Glo, read-out: MDA-MD-468/IC50. The protocol: as §1, §2, §3, §4, §5, §6

Consider `C#CC(Cc1cccc(N)c1)OC(=O)[C@H](C)[C@@H](OC)[C@@H]1CCCN1C(=O)C[C@@H](OC)[C@H]([C@@H](C)CC)N(C)C(=O)[C@@H](NC(=O)[C@H](C(C)C)N(C)C)C(C)C` (single isomer, unassigned) [Example 21], for which the IC50 is below 0.0256 nM in test [1] (Homo sapiens, NCI-N87, 72 h); below 0.0256 nM in test [2] (Homo sapiens, KPL4, 72 h); below 0.0256 nM in test [3] (Homo sapiens, MDA-MB-468, 72 h).
For the compound `CC[C@H](C)[C@@H]([C@@H](CC(=O)N1CCC[C@H]1[C@H](OC)[C@@H](C)C(=O)OC(/C=C/C(=O)OC)Cc1cccc(N)c1)OC)N(C)C(=O)[C@@H](NC(=O)[C@H](C(C)C)N(C)C)C(C)C` (single isomer, unassigned) [Example 28], the IC50 in test [1] (Homo sapiens, NCI-N87, 72 h) is 3.33 nM; in test [2] (Homo sapiens, KPL4, 72 h) it was below 0.0256 nM; in test [3] (Homo sapiens, MDA-MB-468, 72 h), 3.25 nM.
For the compound `CC[C@H](C)[C@@H]([C@@H](CC(=O)N1CCC[C@H]1[C@H](OC)[C@@H](C)C(=O)OC(/C=C/C(=O)OC)Cc1cccc(N)c1)OC)N(C)C(=O)[C@@H](NC(=O)[C@H](C(C)C)N(C)C)C(C)C` (single isomer, unassigned) [Example 29], the IC50 in test [1] was 3.73 nM; in test [2], below 0.0256 nM; in test [3], 3.17 nM.
In the case of `CC[C@H](C)[C@@H]([C@@H](CC(=O)N1CCC[C@H]1[C@H](OC)[C@@H](C)C(=O)N1CCS[C@H](c2cccc(N)c2)C1)OC)N(C)C(=O)[C@@H](NC(=O)[C@H](C(C)C)N(C)C)C(C)C` (single isomer, unassigned) [Example 60-P1], the IC50 in test [1] (Homo sapiens, NCI-N87, 72 h) came to 9.63 nM; in test [2] (Homo sapiens, KPL4, 72 h), 5.81 nM; in test [3] (Homo sapiens, MDA-MB-468, 72 h), 8.02 nM.
With `CC[C@H](C)[C@@H]([C@@H](CC(=O)N1CCC[C@H]1[C@H](OC)[C@@H](C)C(=O)N1CCSC(c2cccc(N)c2)C1)OC)N(C)C(=O)[C@@H](NC(=O)[C@H](C(C)C)N(C)C)C(C)C` (single isomer, unassigned) [Example 60-P2], the IC50 in test [1] (Homo sapiens, NCI-N87, 72 h) turned out to be 0.71 nM; in test [2] (Homo sapiens, KPL4, 72 h), 0.6 nM; in test [3] (Homo sapiens, MDA-MB-468, 72 h), 1.01 nM.
The matching figures for `CC[C@H](C)[C@@H]([C@@H](CC(=O)N1CCC[C@H]1[C@H](OC)[C@@H](C)C(=O)N1CCS(=O)(=O)[C@H](c2cccc(N)c2)C1)OC)N(C)C(=O)[C@@H](NC(=O)[C@H](C(C)C)N(C)C)C(C)C` (single isomer, unassigned) [Example 61-P1]: 93.9 nM, 49.5 nM and 34.6 nM.
The corresponding values for `CC[C@H](C)[C@@H]([C@@H](CC(=O)N1CCC[C@H]1[C@H](OC)[C@@H](C)C(=O)N1CCS(=O)(=O)[C@@H](c2cccc(N)c2)C1)OC)N(C)C(=O)[C@@H](NC(=O)[C@H](C(C)C)N(C)C)C(C)C` (single isomer, unassigned) [Example 61-P2] are 56.3 nM, 24.3 nM and 13.3 nM.
Take `CC[C@H](C)[C@@H]([C@@H](CC(=O)N1CCC[C@H]1[C@H](OC)[C@@H](C)C(=O)N[C@H](CCl)Cc1cccc(N)c1)OC)N(C)C(=O)[C@@H](NC(=O)[C@H](C(C)C)N(C)C)C(C)C` [Example 1, (S)-N-((3R,4S,5S)-1-((S)-2-((1R,2R)-3-(((S)-1-(3-aminophenyl)-3-chloropropan-2-yl)amino)-1-methoxy-2-methyl-3-oxopropyl)pyrrolidin-1-yl)-3-methoxy-5-methyl-1-oxoheptan-4-yl)-2-((S)-2-(dimethylamino)-3-methylbutanamido)-N,3-dimethylbutanamide]: the IC50 in test [1] (Homo sapiens, NCI-N87, 72 h) was determined as 0.74 nM; in test [2] (Homo sapiens, KPL4, 72 h), 0.41 nM; in test [3] (Homo sapiens, MDA-MB-468, 72 h) it was 0.63 nM.
Take `C#C[C@H](Cc1cccc(N)c1)NC(=O)[C@H](C)[C@@H](OC)[C@@H]1CCCN1C(=O)C[C@@H](OC)[C@H]([C@@H](C)CC)N(C)C(=O)[C@@H](NC(=O)[C@H](C(C)C)N(C)C)C(C)C` [Example 2, (S)-N-((3R,4S,5S)-1-((S)-2-((1R,2R)-3-(((S)-1-(3-aminophenyl)-but-3-yn-2-yl)amino)-1-methoxy-2-methyl-3-oxopropyl)pyrrolidin-1-yl)-3-methoxy-5-methyl-1-oxoheptan-4-yl)-2-((S)-2-(dimethylamino)-3-methylbutanamido)-N,3-dimethylbutanamide]: the IC50 turned out to be 0.51 nM in test [1] (Homo sapiens, NCI-N87, 72 h); 0.21 nM in test [2] (Homo sapiens, KPL4, 72 h); 0.36 nM in test [3] (Homo sapiens, MDA-MB-468, 72 h).
Regarding `CC[C@H](C)[C@@H]([C@@H](CC(=O)N1CCC[C@H]1[C@H](OC)[C@@H](C)C(=O)N[C@@H](Cc1cccc(N)c1)C(N)=O)OC)N(C)C(=O)[C@@H](NC(=O)[C@H](C(C)C)N(C)C)C(C)C` [Example 3, (S)-N-((3R,4S,5S)-1-((S)-2-((1R,2R)-3-(((S)-1-amino-3-(3-aminophenyl)-1-oxopropan-2-yl)amino)-1-methoxy-2-methyl-3-oxopropyl)pyrrolidin-1-yl)-3-methoxy-5-methyl-1-oxoheptan-4-yl)-2-((S)-2-(dimethylamino)-3-methylbutanamido)-N,3-dimethylbutanamide] (NMe2Val-V[Dil][Dolaproine][Phe(3-NH2)]-NH2), the IC50 was found to be 38.4 nM in test [1] (Homo sapiens, NCI-N87, 72 h); 18.9 nM in test [2] (Homo sapiens, KPL4, 72 h); 25.1 nM in test [3] (Homo sapiens, MDA-MB-468, 72 h).
Consider `CC[C@H](C)[C@@H]([C@@H](CC(=O)N1CCC[C@H]1[C@H](OC)[C@@H](C)C(=O)N[C@@H](Cc1cccc(N)c1)C(=O)NC)OC)N(C)C(=O)[C@@H](NC(=O)[C@H](C(C)C)N(C)C)C(C)C` [Example 4, (S)-N-((3R,4S,5S)-1-((S)-2-((1R,2R)-3-(((S)-3-(3-aminophenyl)-1-(methylamino)-1-oxopropan-2-yl)amino)-1-methoxy-2-methyl-3-oxopropyl)pyrrolidin-1-yl)-3-methoxy-5-methyl-1-oxoheptan-4-yl)-2-((S)-2-(dimethylamino)-3-methylbutanamido)-N,3-dimethylbutanamide] (NMe2Val-V[Dil][Dolaproine][Phe(3-NH2)]-NHMe), for which the IC50 in test [1] (Homo sapiens, NCI-N87, 72 h) came to 14.7 nM; in test [2] (Homo sapiens, KPL4, 72 h) it was 5.26 nM; in test [3] (Homo sapiens, MDA-MB-468, 72 h), 6.12 nM.
The corresponding values for `C=CCN(CCc1cccc(N)c1)C(=O)[C@H](C)[C@@H](OC)[C@@H]1CCCN1C(=O)C[C@@H](OC)[C@H]([C@@H](C)CC)N(C)C(=O)[C@@H](NC(=O)[C@H](C(C)C)N(C)C)C(C)C` [Example 5, (S)-N-((3R,4S,5S)-1-((S)-2-((1R,2R)-3-(allyl(3-aminophenethyl)amino)-1-methoxy-2-methyl-3-oxopropyl)pyrrolidin-1-yl)-3-methoxy-5-methyl-1-oxoheptan-4-yl)-2-((S)-2-(dimethylamino)-3-methylbutanamido)-N,3-dimethylbutanamide] are 4.28 nM, 3.56 nM and 8.81 nM.
On to `CC[C@H](C)[C@@H]([C@@H](CC(=O)N1CCC[C@H]1[C@H](OC)[C@@H](C)C(=O)N(O)CCc1cccc(N)c1)OC)N(C)C(=O)[C@@H](NC(=O)[C@H](C(C)C)N(C)C)C(C)C` [Example 8, (S)-N-((3R,4S,SS)-1-((S)-2-((1R,2R)-3-((3-aminophenethyl)(hydroxy)amino)-1-methoxy-2-methyl-3-oxopropyl)pyrrolidin-1-yl)-3-methoxy-5-methyl-1-oxoheptan-4-yl)-2-((S)-2-(dimethylamino)-3-methylbutanamido)-N,3-dimethylbutanamide], for which the IC50 amounted to 0.66 nM in test [1] (Homo sapiens, NCI-N87, 72 h); 0.14 nM in test [2] (Homo sapiens, KPL4, 72 h); 0.56 nM in test [3] (Homo sapiens, MDA-MB-468, 72 h).
Consider `CC[C@H](C)[C@@H]([C@@H](CC(=O)N1CCC[C@H]1[C@H](OC)[C@@H](C)C(=O)N1CCO[C@H](c2cccc(N)c2)C1)OC)N(C)C(=O)[C@@H](NC(=O)[C@H](C(C)C)N(C)C)C(C)C` [Example 48, (S)-N-((3R,4S,55)-1-((S)-2-((1R,2R)-3-((R)-2-(3-aminophenyl)morpholino)-1-methoxy-2-methyl-3-oxopropyl)pyrrolidin-1-yl)-3-methoxy-5-methyl-1-oxoheptan-4-yl)-2-((S)-2-(dimethylamino)-3-methylbutanamido)-N,3-dimethylbutanamide], for which the IC50 in test [1] was 4.73 nM; in test [2], 2.06 nM.
The corresponding values for `CC[C@H](C)[C@@H]([C@@H](CC(=O)N1CCC[C@H]1[C@H](OC)[C@@H](C)C(=O)N1CCO[C@@H](c2cccc(N)c2)C1)OC)N(C)C(=O)[C@@H](NC(=O)[C@H](C(C)C)N(C)C)C(C)C` [Example 51, (S)-N-((3R,4S,SS)-1-((S)-2-((1R,2R)-3-((S)-2-(3-aminophenyl)morpholino)-1-methoxy-2-methyl-3-oxopropyl)pyrrolidin-1-yl)-3-methoxy-5-methyl-1-oxoheptan-4-yl)-2-((S)-2-(dimethylamino)-3-methylbutanamido)-N,3-dimethylbutanamide] are 16.1 nM and 6.03 nM.
